Data set [1] addresses T1, A1 receptors (Rattus norvegicus, UniProt P25099).
T1 sequence (P25099 1-326): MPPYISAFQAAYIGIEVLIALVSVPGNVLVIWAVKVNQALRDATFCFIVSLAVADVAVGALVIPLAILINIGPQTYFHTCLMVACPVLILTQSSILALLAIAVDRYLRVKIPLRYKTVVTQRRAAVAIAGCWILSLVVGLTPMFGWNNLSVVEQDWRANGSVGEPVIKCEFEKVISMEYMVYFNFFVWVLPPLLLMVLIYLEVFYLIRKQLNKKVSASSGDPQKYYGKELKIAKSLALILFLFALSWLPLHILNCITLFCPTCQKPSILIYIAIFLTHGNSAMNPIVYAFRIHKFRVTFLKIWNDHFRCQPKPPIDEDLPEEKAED
The data set can be described thus: [3H]-CHA binding, rat cortical membranes (A1), selectivity experiment of Table 4. Also noted: Rat Brain Membranes; from tissue; host or cells: rat brain (membranes). The protocol:
(§1) Varying concentrations of test compounds were incubated with the appropriate radioligand and membrane source for 1 hr at room temperature.
(§2) Assays were terminated by filtration over Whatman GF/B filters that had been pre-soaked with 0.1% polyethyleneimine using a 24 port Brandell cell havester. The filters were washed three times with 3 ml of ice cold buffer and transfered to plastic scintillation vials to which 4 ml of Beckman Ready protein scintillation cocktail was added. The tubes were shaken and counted in a Beckman 3801 scintillation counter that converted cpm to dpm.
(§3) Data were analyzed by utilizing the Ligand, commercial computer program (Munson and Rodbard, 1980).
(§4) Male Sprague Dawley rats were killed by decapitation and the brains removed. The cerebral cortices were homogenized in 50 mm Tris; 2mm MgCl2 (pH 7.4), and centrifuged at 40,000×g for 10 minutes. […] The homogenate was centrifuged, washed once, resuspended to a protein concentration of 5-10 mg/ml and frozen at -70° C. until use.

Data set [2] concerns the target T2, rat cortical A1 receptors (Rattus norvegicus, UniProt P25099).
T2 construct: rat cortical membranes were the receptor source; from tissue; host or cells: rat cerebral cortex (male Sprague Dawley) membranes
T2 sequence (P25099 1-326): T1 sequence (P25099 1-326)
Nature of the data set: displacement of [3H]-CHA from rat cortical A1 receptors. The format is binding. The note with it: [3H]-CHA; rat cortical A1 receptors; read-out: Rat Cortical Binding Constant Ki. The protocol: as §1, §2, §3, §4
(Loss of bound radioactivity is the signal in a displacement assay; it reports binding, not function.)

The subject of data set [3] is A2 receptors. The data set can be described thus: in vivo test on blood pressure of anesthetized rats. The note with it: prior administration, anesthetized rat. The protocol: (§5) Rats were anesthetized with urethan and blood pressure was monitored via a carotid cannula. Drug injections were made intravenously through a jugular cannula. Blood pressure, EGC, and heart rate were recorded on a Grass polygraph.

The target in data set [4] is T1, A1 receptors. The data set can be described thus: in vivo test on heart rate / ECG of anesthetized rats. As to the method: as §5
The test system of data set [5] is A2 adenosine receptors. The data set can be described thus: antagonism of adenosine agonists: decrease in contractile tone of guinea pig taenia caecum (A2). The note with it: for selectivity for A1 adenosine receptors (functional tissues): atrium (A1) vs taenia caecum (A2); for antagonism of the effects of adenosine agonists in relaxing the taenia caecum: modified Schild plots; for sensitization of the tissue (larger agonist response): taenia caecum, high concentrations of the compound. The protocol: Taenia from the guinea pig caecum were cut into lengths of 1.5-2 cm. The tissues were suspended in a 20 ml organ bath containing de Jalon's solution that was gassed with 95% O2 +5% CO2 and maintained at 31° C. […] The contractile response was measured isotonically. […] The ability of the compounds to antagonize the effects of agonists was analyzed using modified Schild plots.

The target of data set [6] is T3, A2 receptors (Bos taurus, UniProt E1BKU0).
T3 construct: bovine caudate was the source of membranes; from tissue; host or cells: bovine caudate nuclei (membranes)
Nature of the data set: [3H]-NECA binding, bovine caudate membranes (A2). The note with it: Table 4, with 50 nM cyclopentyl-adenosine. The protocol:
Further tests to discover the affinities of test compounds at A2 receptors were conducted.
To provide bovine caudate nuclei, bovine brains were obtained fresh from a local slaughterhouse. The caudate nuclei were dissected out and homogenized in Buffer A (50 mm Tris; 1 mm Na2-EDTA; 5 mm KCl; 1 mm MgCl2; 2 mm CaCl2; pH 7.4) using a Brinkman Polytron. The homogenate was centrifuged at 40,000×g for 20 minutes and washed once. The pellet was resuspended in Buffer A, incubated at 37° C. for 15 minutes, then centrifuged. The pellet was washed once more, resuspended to a protein concentration of 5-10 mg/ml in Buffer A and frozen at -70° C. until use.
as §1, §2, §3

The target of data set [7] is T4, A1 adenosine receptors (Cavia porcellus, UniProt P47745).
T4 construct: The left atria from male guinea pigs were isolated; from tissue; host or cells: guinea pig left atrium
T4 sequence (P47745 1-326): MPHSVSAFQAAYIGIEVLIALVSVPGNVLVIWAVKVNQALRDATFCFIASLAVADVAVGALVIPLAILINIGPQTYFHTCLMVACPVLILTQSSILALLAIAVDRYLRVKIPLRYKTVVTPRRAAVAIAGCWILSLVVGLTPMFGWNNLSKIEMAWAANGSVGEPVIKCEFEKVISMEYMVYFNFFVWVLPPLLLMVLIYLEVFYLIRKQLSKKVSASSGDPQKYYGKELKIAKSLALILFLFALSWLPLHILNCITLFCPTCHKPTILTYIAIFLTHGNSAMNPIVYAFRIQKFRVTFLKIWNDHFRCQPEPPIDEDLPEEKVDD
The data set can be described thus: antagonism of adenosine agonists: reduction in force of contraction of guinea pig atrium (A1). The note with it: for competitive antagonism at adenosine receptors in the atria / basal force of contraction in the atria: guinea pig atria. As to the method:
The left atria from male guinea pigs were isolated, suspended between two punctate electrodes, and placed in a 20 ml organ bath that contained Krebs-[…] solution that was continuously gassed with 95% O2 +5% CO2 and maintained at 31° C. The resting tension was one gram. The atria were stimulated electrically at 1 Hz, 1 msec duration pulses at supramaximal voltage. The force of contraction was recorded isometrically. The ability of the compounds to antagonize the effects of agonists was analyzed using modified Schild plots.

In data set [8] the test system is adenosine receptor. The note with it: cited from earlier work.
Data set [9] concerns adenosine-induced cyclic Amp accumulation in a human fibroblast cell line. The note with it: low concentrations; cited from earlier work.
Data set [10] addresses T1, A1 receptors. Nature of the data set: inhibition of binding of [3H]-phenylisopropyladenosine in rat brain membranes (D). Also noted: Rat Brain Membranes; from tissue; host or cells: rat brain (membranes). The protocol: (§6) For activity at A1 receptors, compounds were tested as inhibitors of the binding of N^6 -[…]-[3H]-Phenylisopropyladenosine in rat brain membranes and for their ability to prevent R-PIA-induced inhibition of adenylate cyclase in rat fat cell membranes.
(D) Rat Brain Membranes

Data set [11] addresses T1, A1 receptors. The data set can be described thus: prevention of R-PIA-induced inhibition of adenylate cyclase in rat fat cell membranes (C). The format is biochemical. More on the design: from tissue. As to the method:
as §6
(C) Rat Fat Cell Membranes

Data set [12] deals with T5, A2 receptors (Rattus norvegicus, UniProt P30543).
T5 construct: Rat PC12 Membranes; endogenous in cells; host or cells: PC12
Nature of the data set: antagonism of NECA-stimulated adenylate cyclase in rat PC12 membranes (B). The format is biochemical.

The subject of data set [13] is A2 receptors. The note with it: vs N^6 -substituted adenosine analogs; cited from earlier work.
Data set [14] addresses T6, A2 receptors (Homo sapiens, UniProt P29274).
T6 construct: Human Platelet Membranes; from tissue; host or cells: human platelets (membranes)
Nature of the data set: antagonism of NECA-stimulated adenylate cyclase in human platelet membranes (A). In kind it is biochemical. The note with it: for Kb: (A) Human Platelet Membranes, A2 Effects.

The mark [15] stands for this setting: (C) Rat Fat Cell Membranes, A1 Effects, read-out: KB vs PIA INHIBITION (Adenylate Cyclase).
Where [16] appears, read: (B) Rat PC12 Membranes, A2 Effects.
Setting [17] is: guinea pig atrium, modified Schild plots.

Like-named read-outs stand apart in the source and are kept apart here.

One may read the Ki as the dissociation constant of the complex between target and ligand, obtained from inhibition or displacement.

T6 sequence (P29274 whole entry): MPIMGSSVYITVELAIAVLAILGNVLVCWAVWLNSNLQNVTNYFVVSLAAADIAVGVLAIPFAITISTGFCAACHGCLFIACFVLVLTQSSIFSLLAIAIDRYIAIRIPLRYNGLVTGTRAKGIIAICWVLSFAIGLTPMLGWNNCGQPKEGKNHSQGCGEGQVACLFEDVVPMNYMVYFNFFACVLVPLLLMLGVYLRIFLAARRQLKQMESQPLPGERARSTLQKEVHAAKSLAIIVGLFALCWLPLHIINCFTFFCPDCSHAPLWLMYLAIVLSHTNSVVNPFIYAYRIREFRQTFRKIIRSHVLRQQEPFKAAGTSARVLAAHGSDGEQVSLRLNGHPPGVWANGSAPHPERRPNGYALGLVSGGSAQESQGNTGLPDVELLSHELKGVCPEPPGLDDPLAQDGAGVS
T5 sequence (P30543 whole entry): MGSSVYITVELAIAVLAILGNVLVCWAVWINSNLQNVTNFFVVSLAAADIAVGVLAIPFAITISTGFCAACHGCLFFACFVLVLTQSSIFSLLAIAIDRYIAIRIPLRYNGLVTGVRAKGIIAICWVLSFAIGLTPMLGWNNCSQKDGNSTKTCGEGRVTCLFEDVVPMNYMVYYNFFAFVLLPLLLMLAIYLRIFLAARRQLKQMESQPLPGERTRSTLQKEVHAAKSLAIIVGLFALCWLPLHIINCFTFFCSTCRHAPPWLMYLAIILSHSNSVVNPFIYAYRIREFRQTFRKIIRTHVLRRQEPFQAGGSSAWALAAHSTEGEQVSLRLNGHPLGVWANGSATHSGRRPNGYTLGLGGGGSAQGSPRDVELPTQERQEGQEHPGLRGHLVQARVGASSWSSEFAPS
T3 sequence (E1BKU0 1-401): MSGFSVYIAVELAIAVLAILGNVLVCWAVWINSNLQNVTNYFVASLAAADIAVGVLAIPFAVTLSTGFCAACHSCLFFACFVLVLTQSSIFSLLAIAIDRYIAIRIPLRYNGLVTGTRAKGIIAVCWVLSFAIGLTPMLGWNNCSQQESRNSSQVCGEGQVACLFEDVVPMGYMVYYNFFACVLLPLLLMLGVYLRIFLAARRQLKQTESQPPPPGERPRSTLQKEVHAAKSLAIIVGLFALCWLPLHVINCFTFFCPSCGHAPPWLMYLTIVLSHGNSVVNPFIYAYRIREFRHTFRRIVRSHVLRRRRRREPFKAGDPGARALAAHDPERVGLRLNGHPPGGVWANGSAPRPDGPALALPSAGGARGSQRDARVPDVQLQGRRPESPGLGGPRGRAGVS

Regarding `Cn1cnc2c(N[C@H]3C[C@H]4CC[C@@H]3C4)ncnc21` (relative stereo) [compound 0861, N^6-(endo-2-Norbornyl)-9-Methyladenine], the “selectivity for A1 receptors over A2 receptors” value in data set [1] (A1 vs A2) is 170 fold. In addition, in data set [1] (Table 4, [3H]-CHA, rat cortical membranes per text), the Ki stood at 0.041 µM. Further, in data set [2], the inhibitory constant (Ki) was 0.116 µM. Moreover, the “NECA-induced decrease in blood pressure” value in [3] was “minimally affecting the NECA-induced decrease in blood pressure”. Also, in [4], the cardio-selectivity in vivo entry was “cardio-selective adenosine receptor antagonist in vivo”. For the same compound, in data set [4] (intravenous), the “effects of subsequently administered adenosine on all parameters measured (blood pressure, heart rate, P-R interval)” value is “attenuated the effects of subsequently administered adenosine on all parameters measured” and the “heart block caused by high doses of adenosine” value is recorded as “substantially reduced”. Moreover, the “effects of NECA on the heart” value in data set [4] (prior administration) is “attenuated the effects of NECA on the heart”. Besides, in data set [5], the “selectivity for A1 adenosine receptors (functional tissues)” value (from here on “selectivity for A1 adenosine receptors”) was “selective for A1 adenosine receptors”, the “antagonism of the effects of adenosine agonists in relaxing the taenia caecum” value (“antagonism … in relaxing the taenia caecum” for short) is “did not competitively antagonize the effects of adenosine agonists in relaxing the taenia caecum” and the “sensitization of the tissue (larger agonist response)” value (“sensitization of the tissue” for short) was “some sensitization of the tissue”. Further, the Ki in [6] was 6.96 µM. Besides, in [7] (among the Table 2 examples), the “potency ranking as antagonist” value is on record as “the most potent antagonist”. The “competitive antagonism at adenosine receptors in the atria” value (“competitive antagonism” for short) in data set [7] is listed as “competitive antagonists at adenosine receptors in the atria”.
For the compound `Cn1c(=O)c2[nH]c(-c3ccccc3)nc2n(C)c1=O` [8-phenyltheophylline (8-PT), 8-phenyltheophylline, reference compound], the “selectivity among adenosine receptors” value in [8] is recorded as “non-selective adenosine receptor antagonist”. Besides, in data set [5], the “antagonism … in relaxing the taenia caecum” value is reported as “did antagonize the effects of agonists at low concentrations” and the “sensitization of the tissue” value is recorded as “Sensitization is also observed”.
As for `Nc1ncnc2nc[nH]c12` [Adenine, reference compound], the “antagonism of adenosine-induced cyclic Amp accumulation” value in [9] is recorded as “specific competitive antagonism”. Further, the Ki in data set [10] was over 100 µM. Also, the values for the Kb in data set [11] and in [12] were over 1000 µM and 570 µM, respectively.
As for `Nc1ncnc2c1ncn2[C@@H]1O[C@H](CO)[C@@H](O)[C@H]1O` [Adenosine, reference compound], the “heart block at high doses” value in data set [4] (high doses) is given as “causes heart block”.
Take `CCNC(=O)[C@H]1O[C@@H](n2cnc3c(N)ncnc32)[C@H](O)[C@@H]1O` [NECA, 5'-N-ethylcarboxamido-adenosine]: the “potency at A2 receptors” value in [13] was “more potent than N^6 -substituted analogs”.
Consider `CCC(Cc1cccs1)Nc1ncnc2c1ncn2C` (centres unmarked) [N^6-1-(2-Thienyl)-2-butyl)-9-MA, N^6-1-(2-Thienyl)-2-butyl-9-MA], for which, in data set [7], the “basal force of contraction in the atria” value is “increases in basal force of contraction in the atria” and the “competitive antagonism” value is “competitive antagonists at adenosine receptors in the atria”. For the same compound, the Kb in data set [7] (guinea pig atrium, modified Schild plots, read-out: affinity constant pKB (converted)) was 4.37 µM.
Consider `CCC(CC)Nc1ncnc2c1ncn2C` [N^6-3-Pentyl-9-MA, N^6-3-Pentyl-9-Methyladenine], for which, in [10] ((D) Rat Brain Membranes, A1 Effects, read-out: Ki vs [^3 H] PI (Binding)), the Ki turned out to be 3.3 µM. Also, the Kb in data set [11] (setting [15]) stood at 7.6 µM. In data set [5], the “selectivity for A1 adenosine receptors” value is on record as “selective for A1 adenosine receptors”, the “antagonism … in relaxing the taenia caecum” value is reported as “did not competitively antagonize the effects of adenosine agonists in relaxing the taenia caecum” and the “sensitization of the tissue” value is “some sensitization of the tissue”. This compound yielded a Kb in data set [12] (setting [16]) of 53 µM. Further, the Kb in data set [14] amounted to 11 µM. In data set [7], the “basal force of contraction in the atria” value is on record as “increases in basal force of contraction in the atria” and the “competitive antagonism” value was “competitive antagonists at adenosine receptors in the atria”. For the same compound, the “affinity constant pKB” value in data set [7] (setting [17]) is 5.4 ± 0.14.
In the case of `Cn1cnc2c(NC3CCCC3)ncnc21` [compound 0840, N^6 -Cyclopentyl-9-Methyl Adenine], the Ki in data set [2] stood at 0.375 µM. The “potency relative to 9-methyladenine at A1 receptors” value in [10] (A1 receptors, vs 9-methyladenine) is listed as “at least 100 fold”. Moreover, in data set [11] (setting [15]), the Kb was found to be 1.3 µM. Besides, in data set [5], the “selectivity for A1 adenosine receptors” value is given as “selective for A1 adenosine receptors”, the “antagonism … in relaxing the taenia caecum” value was “did not competitively antagonize the effects of adenosine agonists in relaxing the taenia caecum” and the “sensitization of the tissue” value is recorded as “some sensitization of the tissue”. For the same compound, the Kb in data set [12] (setting [16]) is 25 µM. In addition, the Kb in data set [14] stood at 4.9 µM. For the same compound, in [14] (human platelet assay, vs 9-methyladenine), the “potency relative to 9-methyladenine at A2 receptors” value was 5 fold. Further, the “competitive antagonism” value in [7] is “competitive antagonists at adenosine receptors in the atria”. Also, in [7] (setting [17]), the “affinity constant pKB” value was found to be 6.17 ± 0.11.
